Tests used:
Assay in all cases: radiometric filter-binding kinase assay
[1] = test system: AKT2 (human), P31751 [S474D]
BTK (human) = BTK (human) (UniProt Q06187)
CDK2 CCNA2 (human) = CDK2 CCNA2 (human) (UniProt P20248+P24941)
CHEK2 (human) = CHEK2 (human) (UniProt O96017)
CSK (human) = CSK (human) (UniProt P41240)
CSNK1D (human) = CSNK1D (human) (UniProt P48730)
EPHA4 (human) = EPHA4 (human) (UniProt P54764)
EPHB1 (human) = EPHB1 (human) (UniProt P54762)
EPHB4 (human) = EPHB4 (human) (UniProt P54760)
FLT1 (human) = FLT1 (human) (UniProt P17948)
IKBKB (human) = IKBKB (human) (UniProt O14920)
IKBKE (human) = IKBKE (human) (UniProt Q14164)
INSRR (human) = INSRR (human) (UniProt P14616)
MAP2K1 (human) = MAP2K1 (human) (UniProt Q02750)
MAPK1 (human) = MAPK1 (human) (UniProt P28482)
MAPK14 (human) = MAPK14 (human) (UniProt Q16539)
MAPK15 (human) = MAPK15 (human) (UniProt Q8TD08)
MAPK3 (human) = MAPK3 (human) (UniProt P27361)
MAPKAPK3 (human) = MAPKAPK3 (human) (UniProt Q16644)
MKNK2 (human) = MKNK2 (human) (UniProt Q9HBH9)
NEK2 (human) = NEK2 (human) (UniProt P51955)
NEK6 (human) = NEK6 (human) (UniProt Q9HC98)
PAK7 (human) = PAK7 (human) (UniProt Q9P286)
PIM2 (human) = PIM2 (human) (UniProt Q9P1W9)
PLK1 (human) = PLK1 (human) (UniProt P53350)
PRKAA1 or PRKAA2 (rat) = settings: accession and sequence are those of the human protein
PRKACA (human) = PRKACA (human) (UniProt P17612)
RIPK2 (human) = RIPK2 (human) (UniProt O43353)
RPS6KA1 KD1 KD2 (human) = RPS6KA1 KD1 KD2 (human) (UniProt Q15418)
RPS6KA3 KD1 KD2 (human) = RPS6KA3 KD1 KD2 (human) (UniProt P51812)
RPS6KA5 KD1 KD2 (human) = RPS6KA5 KD1 KD2 (human) (UniProt O75582)
[2] = test system: RPS6KB1 (human), P23443 [T412E]
SRC (human) = SRC (human) (UniProt P12931)
SYK (human) = SYK (human) (UniProt P43405)
TTK (human) = TTK (human) (UniProt P33981)

MAPK3 (human), sequence (P27361 whole entry, looked up): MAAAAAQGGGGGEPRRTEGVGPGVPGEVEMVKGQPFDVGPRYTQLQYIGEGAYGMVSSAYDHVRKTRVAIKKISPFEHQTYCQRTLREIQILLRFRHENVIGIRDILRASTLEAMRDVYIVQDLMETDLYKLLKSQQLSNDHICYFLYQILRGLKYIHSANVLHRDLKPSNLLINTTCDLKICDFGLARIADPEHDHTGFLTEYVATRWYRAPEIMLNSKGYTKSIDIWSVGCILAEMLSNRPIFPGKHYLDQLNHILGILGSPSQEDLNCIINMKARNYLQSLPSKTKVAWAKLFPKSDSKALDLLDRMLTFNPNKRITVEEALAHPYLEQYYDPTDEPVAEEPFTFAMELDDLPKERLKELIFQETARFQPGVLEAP
IKBKB (human), sequence (O14920 whole entry, looked up): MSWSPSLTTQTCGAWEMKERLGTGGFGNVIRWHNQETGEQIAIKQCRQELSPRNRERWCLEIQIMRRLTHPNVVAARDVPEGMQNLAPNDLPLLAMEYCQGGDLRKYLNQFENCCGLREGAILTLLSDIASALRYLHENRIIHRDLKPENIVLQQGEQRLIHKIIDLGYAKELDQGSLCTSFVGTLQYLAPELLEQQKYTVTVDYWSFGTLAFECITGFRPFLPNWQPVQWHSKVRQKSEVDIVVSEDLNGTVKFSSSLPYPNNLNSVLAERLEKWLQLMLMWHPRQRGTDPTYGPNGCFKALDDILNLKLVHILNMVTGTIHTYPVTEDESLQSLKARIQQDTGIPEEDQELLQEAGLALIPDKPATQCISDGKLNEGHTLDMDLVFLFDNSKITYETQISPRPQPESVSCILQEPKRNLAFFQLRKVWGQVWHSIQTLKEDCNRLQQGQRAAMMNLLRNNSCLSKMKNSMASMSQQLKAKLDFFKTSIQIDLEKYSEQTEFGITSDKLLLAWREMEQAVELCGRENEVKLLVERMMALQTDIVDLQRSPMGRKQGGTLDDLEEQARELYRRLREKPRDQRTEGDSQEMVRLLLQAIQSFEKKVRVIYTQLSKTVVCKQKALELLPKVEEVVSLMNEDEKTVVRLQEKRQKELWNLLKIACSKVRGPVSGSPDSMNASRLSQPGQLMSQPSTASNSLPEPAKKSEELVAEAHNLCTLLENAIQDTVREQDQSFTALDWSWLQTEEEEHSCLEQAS
INSRR (human), sequence (P14616 whole entry, looked up): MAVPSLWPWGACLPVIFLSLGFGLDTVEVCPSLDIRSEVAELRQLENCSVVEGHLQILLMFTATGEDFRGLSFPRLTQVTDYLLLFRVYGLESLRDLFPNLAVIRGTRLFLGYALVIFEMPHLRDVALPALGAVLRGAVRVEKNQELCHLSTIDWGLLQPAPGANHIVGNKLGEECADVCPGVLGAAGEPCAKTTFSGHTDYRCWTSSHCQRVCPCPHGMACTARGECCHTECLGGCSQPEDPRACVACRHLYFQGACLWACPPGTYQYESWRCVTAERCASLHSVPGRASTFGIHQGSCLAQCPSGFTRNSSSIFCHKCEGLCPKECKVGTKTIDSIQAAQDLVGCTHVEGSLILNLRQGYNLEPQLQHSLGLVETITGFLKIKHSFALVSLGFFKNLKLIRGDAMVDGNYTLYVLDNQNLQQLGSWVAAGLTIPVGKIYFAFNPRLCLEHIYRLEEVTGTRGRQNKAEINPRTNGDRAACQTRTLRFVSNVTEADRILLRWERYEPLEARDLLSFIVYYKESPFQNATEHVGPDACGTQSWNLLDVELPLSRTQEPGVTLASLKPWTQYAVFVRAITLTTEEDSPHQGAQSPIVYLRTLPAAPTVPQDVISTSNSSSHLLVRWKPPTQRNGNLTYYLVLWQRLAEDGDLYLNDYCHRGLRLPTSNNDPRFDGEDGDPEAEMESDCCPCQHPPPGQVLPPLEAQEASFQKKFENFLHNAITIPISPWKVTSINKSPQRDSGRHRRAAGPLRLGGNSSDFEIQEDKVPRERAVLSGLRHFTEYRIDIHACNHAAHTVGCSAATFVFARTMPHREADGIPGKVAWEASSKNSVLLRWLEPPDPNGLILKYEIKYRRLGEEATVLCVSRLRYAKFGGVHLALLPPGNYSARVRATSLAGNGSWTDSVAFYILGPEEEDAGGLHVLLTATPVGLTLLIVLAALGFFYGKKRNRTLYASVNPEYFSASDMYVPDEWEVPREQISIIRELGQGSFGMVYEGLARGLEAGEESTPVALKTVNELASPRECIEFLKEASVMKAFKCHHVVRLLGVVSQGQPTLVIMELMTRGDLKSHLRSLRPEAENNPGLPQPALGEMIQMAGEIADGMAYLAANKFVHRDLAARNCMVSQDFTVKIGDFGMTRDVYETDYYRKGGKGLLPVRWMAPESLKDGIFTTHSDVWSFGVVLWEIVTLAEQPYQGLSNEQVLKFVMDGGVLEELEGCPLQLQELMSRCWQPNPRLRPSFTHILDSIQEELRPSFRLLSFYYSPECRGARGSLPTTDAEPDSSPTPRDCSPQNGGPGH
PLK1 (human), sequence (P53350 whole entry, looked up): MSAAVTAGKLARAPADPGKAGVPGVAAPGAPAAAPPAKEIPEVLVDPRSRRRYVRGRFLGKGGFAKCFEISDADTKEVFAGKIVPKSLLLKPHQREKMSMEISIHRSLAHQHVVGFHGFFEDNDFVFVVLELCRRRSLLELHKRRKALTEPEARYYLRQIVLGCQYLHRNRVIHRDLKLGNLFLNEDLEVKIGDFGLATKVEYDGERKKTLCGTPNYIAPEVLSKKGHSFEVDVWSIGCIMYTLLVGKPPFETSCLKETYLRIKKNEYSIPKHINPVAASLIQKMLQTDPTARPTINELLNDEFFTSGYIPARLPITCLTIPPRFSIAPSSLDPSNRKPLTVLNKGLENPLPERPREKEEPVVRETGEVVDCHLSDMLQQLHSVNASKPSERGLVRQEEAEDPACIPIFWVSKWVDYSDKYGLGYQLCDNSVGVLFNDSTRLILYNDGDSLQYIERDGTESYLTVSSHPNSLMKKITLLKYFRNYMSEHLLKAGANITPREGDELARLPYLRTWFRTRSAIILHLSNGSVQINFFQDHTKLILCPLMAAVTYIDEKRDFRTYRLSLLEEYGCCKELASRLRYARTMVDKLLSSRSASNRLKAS
MAPK1 (human), sequence (P28482 whole entry, looked up): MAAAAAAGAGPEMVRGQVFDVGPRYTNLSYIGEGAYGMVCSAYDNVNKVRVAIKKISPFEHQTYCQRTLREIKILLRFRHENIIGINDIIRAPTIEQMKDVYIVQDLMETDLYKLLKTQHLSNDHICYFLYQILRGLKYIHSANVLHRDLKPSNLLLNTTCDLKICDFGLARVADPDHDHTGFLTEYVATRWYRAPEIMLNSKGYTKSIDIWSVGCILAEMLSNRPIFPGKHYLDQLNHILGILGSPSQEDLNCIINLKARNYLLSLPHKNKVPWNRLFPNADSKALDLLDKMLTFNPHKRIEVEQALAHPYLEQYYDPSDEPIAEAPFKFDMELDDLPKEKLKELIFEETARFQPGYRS
NEK2 (human), sequence (P51955 whole entry, looked up): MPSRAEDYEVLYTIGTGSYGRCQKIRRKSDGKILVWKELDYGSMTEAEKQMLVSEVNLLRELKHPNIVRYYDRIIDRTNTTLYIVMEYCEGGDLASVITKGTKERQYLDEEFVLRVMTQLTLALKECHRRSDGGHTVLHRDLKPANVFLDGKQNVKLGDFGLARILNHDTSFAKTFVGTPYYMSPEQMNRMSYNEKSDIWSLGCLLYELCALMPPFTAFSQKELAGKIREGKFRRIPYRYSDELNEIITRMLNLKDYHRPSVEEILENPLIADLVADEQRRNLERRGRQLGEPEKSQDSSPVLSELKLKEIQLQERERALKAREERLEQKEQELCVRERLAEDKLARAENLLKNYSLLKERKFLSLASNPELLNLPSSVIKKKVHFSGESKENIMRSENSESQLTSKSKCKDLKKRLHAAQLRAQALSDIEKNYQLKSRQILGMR
PAK7 (human), sequence (Q9P286 whole entry, looked up): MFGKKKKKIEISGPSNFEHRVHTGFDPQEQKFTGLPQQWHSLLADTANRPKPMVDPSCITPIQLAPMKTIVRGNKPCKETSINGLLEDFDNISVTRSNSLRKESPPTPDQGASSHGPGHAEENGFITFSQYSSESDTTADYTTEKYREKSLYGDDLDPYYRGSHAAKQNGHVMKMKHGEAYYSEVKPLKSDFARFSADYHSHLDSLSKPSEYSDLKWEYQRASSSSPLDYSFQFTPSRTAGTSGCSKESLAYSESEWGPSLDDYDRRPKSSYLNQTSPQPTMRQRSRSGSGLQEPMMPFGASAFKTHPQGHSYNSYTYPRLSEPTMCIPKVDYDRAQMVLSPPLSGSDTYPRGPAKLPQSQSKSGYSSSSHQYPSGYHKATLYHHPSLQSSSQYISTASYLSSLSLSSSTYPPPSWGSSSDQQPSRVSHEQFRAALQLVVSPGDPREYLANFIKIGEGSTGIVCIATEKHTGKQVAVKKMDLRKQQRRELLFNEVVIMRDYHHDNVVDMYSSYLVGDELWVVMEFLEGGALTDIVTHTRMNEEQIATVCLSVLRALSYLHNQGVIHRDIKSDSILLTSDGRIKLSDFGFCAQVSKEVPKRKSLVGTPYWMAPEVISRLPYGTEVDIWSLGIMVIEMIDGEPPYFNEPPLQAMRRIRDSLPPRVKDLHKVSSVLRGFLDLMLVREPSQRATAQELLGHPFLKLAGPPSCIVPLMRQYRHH
MAPK14 (human), sequence (Q16539 whole entry, looked up): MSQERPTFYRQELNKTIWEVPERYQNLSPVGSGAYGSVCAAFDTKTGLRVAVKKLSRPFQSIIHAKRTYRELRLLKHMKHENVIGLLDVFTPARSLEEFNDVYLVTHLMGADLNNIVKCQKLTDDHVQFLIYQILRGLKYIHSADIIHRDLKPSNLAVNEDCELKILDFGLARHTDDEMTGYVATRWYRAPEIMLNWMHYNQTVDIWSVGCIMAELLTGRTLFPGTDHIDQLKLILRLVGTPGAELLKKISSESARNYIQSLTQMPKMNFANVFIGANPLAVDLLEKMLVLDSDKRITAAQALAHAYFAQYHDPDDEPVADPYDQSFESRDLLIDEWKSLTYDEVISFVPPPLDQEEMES

## O=C(Nc1ccccc1-c1cn2c(CN3CCNCC3)csc2n1)c1cnc2ccccc2n1
[1]; compound 0.1 µM
  residual activity: 75%
[1]; compound 1.0 µM
  residual activity: 70%
[1]; compound 10.0 µM
  residual activity: 61%
BTK (human); compound 0.1 µM
  residual activity: 88%
BTK (human); compound 1.0 µM
  residual activity: 99%
BTK (human); compound 10.0 µM
  residual activity: 79%
CDK2 CCNA2 (human); compound 0.1 µM
  residual activity: 88%
CDK2 CCNA2 (human); compound 1.0 µM
  residual activity: 100%
CDK2 CCNA2 (human); compound 10.0 µM
  residual activity: 115%
CHEK2 (human); compound 0.1 µM
  residual activity: 85%
CHEK2 (human); compound 1.0 µM
  residual activity: 93%
CHEK2 (human); compound 10.0 µM
  residual activity: 54%
CSK (human); compound 0.1 µM
  residual activity: 97%
CSK (human); compound 1.0 µM
  residual activity: 85%
CSK (human); compound 10.0 µM
  residual activity: 97%
CSNK1D (human); compound 0.1 µM
  residual activity: 99%
CSNK1D (human); compound 1.0 µM
  residual activity: 106%
CSNK1D (human); compound 10.0 µM
  residual activity: 91%
EPHA4 (human); compound 1.0 µM
  residual activity: 78%
EPHA4 (human); compound 10.0 µM
  residual activity: 76%
EPHB1 (human); compound 1.0 µM
  residual activity: 102%
EPHB1 (human); compound 10.0 µM
  residual activity: 88%
EPHB4 (human); compound 1.0 µM
  residual activity: 96%
EPHB4 (human); compound 10.0 µM
  residual activity: 103%
FLT1 (human); compound 0.1 µM
  residual activity: 90%
FLT1 (human); compound 1.0 µM
  residual activity: 89%
FLT1 (human); compound 10.0 µM
  residual activity: 53%
IKBKB (human); compound 0.1 µM
  residual activity: 84%
IKBKB (human); compound 1.0 µM
  residual activity: 93%
IKBKB (human); compound 10.0 µM
  residual activity: 84%
IKBKE (human); compound 0.1 µM
  residual activity: 90%
IKBKE (human); compound 1.0 µM
  residual activity: 102%
IKBKE (human); compound 10.0 µM
  residual activity: 83%
INSRR (human); compound 0.1 µM
  residual activity: 73%
INSRR (human); compound 1.0 µM
  residual activity: 77%
INSRR (human); compound 10.0 µM
  residual activity: 53%
MAP2K1 (human); compound 0.1 µM
  residual activity: 91%
MAP2K1 (human); compound 1.0 µM
  residual activity: 95%
MAP2K1 (human); compound 10.0 µM
  residual activity: 87%
MAPK1 (human); compound 0.1 µM
  residual activity: 93%
MAPK1 (human); compound 1.0 µM
  residual activity: 103%
MAPK1 (human); compound 10.0 µM
  residual activity: 97%
MAPK14 (human); compound 0.1 µM
  residual activity: 87%
MAPK14 (human); compound 1.0 µM
  residual activity: 91%
MAPK14 (human); compound 10.0 µM
  residual activity: 99%
MAPK15 (human); compound 0.1 µM
  residual activity: 81%
MAPK15 (human); compound 1.0 µM
  residual activity: 96%
MAPK15 (human); compound 10.0 µM
  residual activity: 86%
MAPK3 (human); compound 0.1 µM
  residual activity: 88%
MAPK3 (human); compound 1.0 µM
  residual activity: 105%
MAPK3 (human); compound 10.0 µM
  residual activity: 117%
MAPKAPK3 (human); compound 1.0 µM
  residual activity: 90%
MAPKAPK3 (human); compound 10.0 µM
  residual activity: 100%
MKNK2 (human); compound 0.1 µM
  residual activity: 90%
MKNK2 (human); compound 1.0 µM
  residual activity: 92%
MKNK2 (human); compound 10.0 µM
  residual activity: 96%
NEK2 (human); compound 0.1 µM
  residual activity: 91%
NEK2 (human); compound 1.0 µM
  residual activity: 95%
NEK2 (human); compound 10.0 µM
  residual activity: 87%
NEK6 (human); compound 0.1 µM
  residual activity: 84%
NEK6 (human); compound 1.0 µM
  residual activity: 108%
NEK6 (human); compound 10.0 µM
  residual activity: 83%
PAK7 (human); compound 0.1 µM
  residual activity: 79%
PAK7 (human); compound 1.0 µM
  residual activity: 91%
PAK7 (human); compound 10.0 µM
  residual activity: 72%
PIM2 (human); compound 0.1 µM
  residual activity: 90%
PIM2 (human); compound 1.0 µM
  residual activity: 95%
PIM2 (human); compound 10.0 µM
  residual activity: 78%
PLK1 (human); compound 0.1 µM
  residual activity: 84%
PLK1 (human); compound 1.0 µM
  residual activity: 94%
PLK1 (human); compound 10.0 µM
  residual activity: 104%
PRKAA1 or PRKAA2 (rat); compound 0.1 µM
  residual activity: 83%
PRKAA1 or PRKAA2 (rat); compound 1.0 µM
  residual activity: 88%
PRKAA1 or PRKAA2 (rat); compound 10.0 µM
  residual activity: 60%
PRKACA (human); compound 0.1 µM
  residual activity: 80%
PRKACA (human); compound 1.0 µM
  residual activity: 106%
PRKACA (human); compound 10.0 µM
  residual activity: 84%
RIPK2 (human); compound 1.0 µM
  residual activity: 100%
RIPK2 (human); compound 10.0 µM
  residual activity: 95%
RPS6KA1 KD1 KD2 (human); compound 0.1 µM
  residual activity: 88%
RPS6KA1 KD1 KD2 (human); compound 1.0 µM
  residual activity: 66%
RPS6KA1 KD1 KD2 (human); compound 10.0 µM
  residual activity: 34%
RPS6KA3 KD1 KD2 (human); compound 1.0 µM
  residual activity: 84%
RPS6KA3 KD1 KD2 (human); compound 10.0 µM
  residual activity: 46%
RPS6KA5 KD1 KD2 (human); compound 0.1 µM
  residual activity: 94%
RPS6KA5 KD1 KD2 (human); compound 1.0 µM
  residual activity: 90%
RPS6KA5 KD1 KD2 (human); compound 10.0 µM
  residual activity: 68%
[2]; compound 0.1 µM
  residual activity: 86%
[2]; compound 1.0 µM
  residual activity: 111%
[2]; compound 10.0 µM
  residual activity: 61%
SRC (human); compound 0.1 µM
  residual activity: 85%
SRC (human); compound 1.0 µM
  residual activity: 93%
SRC (human); compound 10.0 µM
  residual activity: 121%
SYK (human); compound 0.1 µM
  residual activity: 109%
SYK (human); compound 1.0 µM
  residual activity: 93%
SYK (human); compound 10.0 µM
  residual activity: 67%
TTK (human); compound 1.0 µM
  residual activity: 85%
TTK (human); compound 10.0 µM
  residual activity: 68%
